Earlier results in patent US20250283018A1, “TOILET RIM BLOCKS WITH SCENT CHANGE” (SYMRISE AG, priority 2021, published 2025).
Read-outs that look alike come from different tables or passages of the source.

What was measured:
[1] = not given; remark: listed apart in the source
[2] = Table 3, components of POWER PLATIN

Row | Compound | Bp. [° C.] (list of selected fragrances) [°C] | Bp. [° C.] (Table 1, components of MARINA) [°C] | Bp. [° C.] [2] [°C] | further results
1 | CC1CC(C)(c2ccccc2)OC(C)O1 (stereo not drawn) | 279.2 |  |  | logP ([1]; list of selected fragrances): 2.79
2 | CCCC1(C)OC2CC34CC(C(C)(C)C3CCC4C)C2(C)O1 (stereo not drawn) | 336 |  |  | logP ([1]; list of selected fragrances): 5.94
3 | CSC |  |  |  | Bp. [° C.] (Table 2, components of PEACH): 37 °C
4 | CCOC(=O)CC(O)(CC(=O)OCC)C(=O)OCC |  |  |  | Bp. [° C.] (Table 2, components of PEACH): 294 °C
5 | 3-METHYLBUTYL-CYCLOHEXANOL | 245 |  |  | logP ([1]; list of selected fragrances): 4.49
6 | C=CC(C)(O)CCC=C(C)CC (mixture of isomers) [ETHYLLINALOOL] |  | 224 |  | 
7 | CC1=CCC(C=CC(C)C(C)O)C1(C)C (stereo in doubt) [EBANOL] |  |  | 274 | logP [1, 2]: 4.93
8 | O=C1CCCCCCCCCCCCCCC1 [8-CYCLOHEXADECANONE, 8-cyclohexadecanone] | 323 |  |  | Bp. [° C.] (Table 2, components of PEACH): 323 °C; logP ([1]; Table 2, components of PEACH): 5.82; logP ([1]; list of selected fragrances): 5.97
9 | CC(=O)OC1CCCCC1C(C)(C)C (stereo not drawn) [AGRUMEX LC] |  | 227 | 227 | Bp. [° C.] (Table 2, components of PEACH): 227 °C
10 | CCCCCC1CCC(=O)O1 (stereo not drawn) [ALDEHYD C18 SOG.] |  |  |  | Bp. [° C.] (Table 2, components of PEACH): 250 °C
11 | CCCCCCCCCCO [ALKOHOL C10] |  | 231.1 |  | logP ([1]; Table 1, components of MARINA): 3.79
12 | COC(OC)C(C)(C)CC=C(C)C [AMAROCIT ®] |  |  | 203 | logP [1, 2]: 3.39
13 | CC1(C)CCC[C@]2(C)[C@H]3CCO[C@]3(C)CC[C@@H]12 [AMBROXIDE] |  | 283 |  | 
14 | C/C=C/c1ccc(OC)cc1 [ANETHOL SUPRA 21.5 CELSIUS] |  |  | 234 | 
15 | COc1ccc(C=O)cc1 [ANISALDEHYD REIN] |  |  | 248 | 
16 | CCCCCCC1OC(=O)CC1C (stereo not drawn) [APRIFLOREN ®] |  |  |  | Bp. [° C.] (Table 2, components of PEACH): 274 °C
17 | O=C(OCc1ccccc1)c1ccccc1O [BENZYLSALICYLAT] | 325 |  |  | logP ([1]; list of selected fragrances): 4.06
18 | CC(=O)/C=C/C1=C(C)CCCC1(C)C [BETA IONONE] | 259 | 259 |  | logP ([1]; list of selected fragrances): 3.77
19 | Cc1ccc2c(c1)OCC(=O)CO2 [CALONE] |  | 289 | 289 | logP ([1]; Table 1, components of MARINA): 2.43; logP [1, 2]: 2.43
20 | CO[C@]1(C)CC[C@@]23C[C@@H]1C(C)(C)[C@@H]2CC[C@H]3C [CEDRAMBER] |  | 270 | 270 | 
21 | C[C@@H]1CC[C@H]2C(C)(C)[C@H]3C[C@@]12CC[C@@]3(C)O [CEDROL CRIST. NAT.] |  | 283 | 283 | 
22 | CO[C@]1(C)CC[C@@]23C[C@@H]1C(C)(C)[C@@H]2CC[C@H]3C [CEDROL METHYL ETHER] | 270 |  |  | 

More lines, main results first:

Row | Bp. [° C.] (list of selected fragrances) [°C] | Bp. [° C.] (Table 1, components of MARINA) [°C] | Bp. [° C.] [2] [°C] | Compound | further results
23 | 230 |  |  | CCCCC(=CCC#N)CC | logP ([1]; list of selected fragrances): 3.98
24 |  | 235 |  | CC(C)=CCCC(C)CC#N (stereo not drawn) | logP ([1]; Table 1, components of MARINA): 3.55
25 | 262 |  | 262 | CC(C=O)Cc1ccc(C(C)C)cc1 (stereo not drawn) | logP [1, 2]: 3.91; logP ([1]; list of selected fragrances): 3.61
26 |  | 307 |  | CC(C)=CCCC(C)=CCCc1ccncc1 | logP ([1]; Table 1, components of MARINA): 5.95
27 |  | 211 |  | CC1(C)[C@@H]2CC[C@@]1(C)[C@H](O)C2 (racemic) [ISOBORNEOL] | 
28 |  | 224 |  | CC(=O)O[C@@H]1C[C@H]2CC[C@]1(C)C2(C)C (racemic) [ISOBORNYLACETAT] | logP ([1]; Table 1, components of MARINA): 3.86
29 | 293 |  |  | CCCCCCC1OC(=O)CC1C (stereo not drawn) [3-METHYL-GAMMA-DECALACTONE] | 
30 | 258 |  |  | CC(C)C1CC=C(CCC=O)CC1 (stereo not drawn) [3-[4-ISOPROPYLCYCLOHEXEN-1-YL]PROPANAL] | logP ([1]; list of selected fragrances): 4.8
31 | 252 |  |  | CCC(CC)COC(=O)CC1C=CCC1 (stereo not drawn) [(2-CYCLOPENTEN-1-ACETIC ACID-2-ETHYLBUTYL ESTER] | 
32 | 92 |  |  | C=C(C)C1CC=C(C)C(OC(C)=O)C1 (stereo not drawn) [ACETIC ACID CARVYL ESTER] | logP ([1]; list of selected fragrances): 4.26
33 |  | 208.5 | 208.5 | CCCCCCCCCC=O [ALDEHYD C10] | Bp. [° C.] (Table 2, components of PEACH): 208.5 °C; logP ([1]; Table 1, components of MARINA): 3.76; logP ([1]; Table 2, components of PEACH): 3.76; logP [1, 2]: 3.76
34 |  | 223 |  | CCCCCCCCCCC=O [ALDEHYD C11 UNDECANAL] | logP ([1]; Table 1, components of MARINA): 4.25
35 |  | 249 |  | CCCCCCCCCCCC=O [ALDEHYD C12 LAURIN] | logP ([1]; Table 1, components of MARINA): 4.75
36 |  |  | 171 | CCCCCCCCCC(C)C=O (stereo not drawn) [ALDEHYD C12 MNA] | logP [1, 2]: 4.67
37 |  | 171 |  | CCCCCCCC=O [ALDEHYD C 8] | Bp. [° C.] (Table 2, components of PEACH): 171 °C; logP ([1]; Table 1, components of MARINA): 2.78; logP ([1]; Table 2, components of PEACH): 2.78
38 |  | 191 |  | CCCCCCCCC=O [ALDEHYD C 9] | logP ([1]; Table 1, components of MARINA): 3.27
39 |  |  | 226 | C=CCOC(=O)COCCC(C)C [ALLYLAMYLGLYCOLAT] | 
40 | 250 |  |  | C=CCOC(=O)CCC1CCCCC1 [ALLYLCYCLOHEXYLPROPIONAT] | 
41 | 266 |  |  | C=CCOC(=O)COc1ccccc1 [ALLYLPHENOXYACETAT] | Bp. [° C.] (Table 2, components of PEACH): 266 °C
42 |  |  | 251 | C=C1CC/C=C(/C)CC[C@@H]2[C@@H]1CC2(C)C [CARYOPHYLLEN NAT. REKT.] | logP [1, 2]: 6.3
